Experimental findings from PubChem BioAssay AID179 (DTP/NCI, 2004) are described below.

A word on the EC50: it is the concentration needed to bring the measured effect to its halfway point. One may read the IC50 as the concentration needed to halve the response being measured.

The test deals with CEM cells HIV-1 protection, formazan growth assay. As to the kind of experiment: NCI AIDS Antiviral Assay. Conditions: for IC50: measured here: growth of uninfected CEM cells. In short, it runs like this: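 Human CEM cells, uninfected and HIV-1-infected, received five drug concentrations, and growth was read by soluble formazan assay. Compounds giving at least 50% protection were retested; reproducible 100% protection defined confirmed active.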

Where “and” joins values, the source holds several entries; their conditions need not be identical. Identical values can stand only once. Calls of active or inactive are those of the source.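 The calls were made as follows: active = compounds giving half or more protection of infected cells from virus-caused growth loss, again on retest; inactive = the rest.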

Consider `C1=CC2SSSC2C1` (centres undefined), for which the EC50 is over 251 µM and the half-maximal inhibitory concentration (IC50) was over 251 µM.

On to `CCCCCCCCCCCCN(CCCCCCCCCCCC)CC(=O)Nc1ccc(S(=O)(=O)c2ccc(NC(=O)CN(CCCCCCCCCCCC)CCCCCCCCCCCC)cc2)cc1`, for which the EC50 was over 50.1 µM and the concentration for half-maximal inhibition (IC50) stood at 2.57 µM.

Take `CSc1ncc2c(C#N)c3n(C)c4ccccc4n3c(=O)c2n1`: the EC50 was over 100 µM and the IC50 was over 100 µM.

As to `COc1ccc(-n2cnc3c(NCC(=O)O)ncnc32)cc1`, the EC50 was over 200 µM and the IC50 is over 200 µM.

With `OCCNCNc1nc(NCNCCO)nc(N(CNCCO)CNCCO)n1`, the EC50 was over 200 µM and the half-maximal inhibitory concentration (IC50) is 26.9 µM.

As to `COc1ccc(CCN2COc3ccc4ccc(=O)oc4c3C2)cc1OC`, the EC50 is over 200 µM and the IC50 was 67.6 µM.

With `CCCCCCC[CH2][Sn]([Cl])([Cl])[CH2]CCCCCCC`, the outcome was inactive.

In the case of `O=[N+]([O-])c1cc(C(F)(F)F)ccc1S(=O)(=O)c1ccccc1`, the EC50 was over 77.6 µM; the IC50 is 3.89 µM and 1.26 µM.

On to `CC(=O)O/C=C1/C[C@H]2[C@@H]3CCC4CC(C(C)=O)CC[C@]4(C)[C@H]3CC[C@]2(C)C1=O` (some centres undefined), for which the EC50 is over 200 µM and the 50% inhibitory concentration (IC50) was 107 µM.

`CCc1cc2c(cc1CCCC(=O)O)CC1(Cc3ccc(C(=O)O)cc3C1)C2` (centres undefined): the EC50 is over 200 µM and the IC50 was determined as 155 µM.

Regarding `CCC1(c2ccc(OC)c(OC)c2)CCN(S(=O)(=O)c2ccc(C)cc2)C1` (centres undefined), the EC50 is over 200 µM and the IC50 was over 200 µM.

With `O=c1nc(SSc2ccn(C3OC(CO)C(O)C3O)c(=O)n2)ccn1C1OC(CO)C(O)C1O` (centres undefined), the EC50 was over 200 µM and the IC50 is 2.63 µM.

`CC1CCC2(CC1)CC(=O)N(N1CCCCC1)C2=O` (centres undefined): the EC50 is over 200 µM and the IC50 is over 200 µM.

Take `N#CC(Sc1ccccc1)c1ccccc1` (centres undefined): the EC50 is over 44.7 µM and the half-inhibitory concentration (IC50) was over 44.7 µM.

Consider `CCN(CC)CCCN1CCc2c([nH]c3ccccc23)C1c1cccnc1` (centres undefined), for which the EC50 was over 186 µM and the IC50 was over 186 µM.

As to `CCC1NC(=O)C1NC(=O)OC` (centres undefined), the outcome was inactive.

On to `O=C1C2C(C(=O)N1OS(=O)(=O)c1ccccc1)N(Cc1ccccc1)C(=O)N2Cc1ccccc1` (centres undefined), for which the EC50 is over 7.59 µM and the IC50 is over 7.59 µM.

With `COC(=O)/C(=N/NC(N)=O)C(C(=O)OC)C(=O)C(=O)Nc1ccc(Cl)cc1` (centres undefined), the outcome was inactive.

For the compound `CCOC(=O)C(=C=Cc1cccs1)C(=O)c1ccccc1`, the EC50 was over 120 µM and the IC50 amounted to 53.7 µM.

In the case of `COc1ccc(C(=O)N2CCc3c([nH]c4ccccc34)C2C(=O)O)o1` (centres undefined), the EC50 is over 39.8 µM and the IC50 was 17.4 µM.

Take `O=C(NCCS(=O)(=O)N1C(=O)C2CCCN2C(=O)[C@@H]1Cc1ccccc1)OCc1ccccc1` (some centres undefined): the EC50 was over 100 µM and the IC50 is 53.7 µM.

On to `COc1cc(C2c3cc4c(cc3OC(NNS(=O)(=O)c3ccc(C)cc3)C2C)OCO4)cc(OC)c1O` (centres undefined), for which the result was inactive.

For `C[Si](C)(/C=C(\Br)CCOC1CCCCO1)c1ccccc1` (centres undefined), the result was inactive.

For the compound `C#C[C@]1(O)CC[C@H]2[C@@H]3CCC4=C/C(=N/OC(=O)c5cccc6c(=O)c7ccccc7[nH]c56)CC[C@@H]4[C@H]3CC[C@@]21C`, the EC50 was over 200 µM and the IC50 turned out to be 30.9 µM.

With `C=C1C(=O)[C@]23C[C@H]1CC(O)[C@H]2C1(CCC[C@@](C)(COC(C)=O)C1C=O)COC3=O` (some centres undefined), the result was inactive.

For the compound `CCOC(=O)c1ccc(C(O)CC(=O)OC(C)(C)C)[nH]1` (centres undefined), the EC50 was over 200 µM and the half-maximal inhibitory concentration (IC50) is 38 µM.

`Cc1cc2c(cc1Cl)SC(C(=O)c1cccc([N+](=O)[O-])c1)=NS2(=O)=O`: the EC50 was 120 µM and the IC50 was over 200 µM.

As to `COC1/C=C/OC2(C)Oc3c(C)c(O)c4c(O)c(c(/C=N/Nc5nc6c(N)ncnc6n5C5OC(CO)C(O)C5O)c(O)c4c3C2=O)NC(=O)C(C)=C/C=C/C(C)C(O)C(C)C(O)C(C)C(OC(C)=O)C1C` (centres undefined), the EC50 is over 200 µM and the IC50 came out at 158 µM.

Consider `O=C1C2CCN(CC2)C1CN1CCOCC1` (centres undefined), for which the result was inactive.

`CC(=O)c1ccc(C(O)C(CO)NC(=O)C(Cl)Cl)cc1` (centres undefined): the EC50 was over 200 µM and the IC50 is over 200 µM.

Take `O=C(NCCCCNCCCNC(=O)c1ccc([N+](=O)[O-])cc1)c1ccc([N+](=O)[O-])cc1`: the EC50 is over 200 µM and the IC50 worked out at 112 µM.

Consider `Cc1cccc2c1OC(=O)C1CNCOC21` (centres undefined), for which the EC50 is over 200 µM and the half-inhibitory concentration (IC50) was 33.1 µM.

For `COC1OC2COc3ccccc3OC2C2C1N2C(N)=O` (centres undefined), the outcome was inactive.

Turning to `CC1OC2(CC(OCc3ccccc3)C1OCc1ccccc1)OCCO2` (centres undefined), the EC50 was over 200 µM and the IC50 came out at 29.5 µM.

As to `COc1ccc(NC(=O)C(C#N)=C(SC)SC)cc1`, the EC50 is over 200 µM and the IC50 was found to be 7.94 µM.

Take `COc1cc(-c2cc(=O)c3c(O)c(OC)c(OC)cc3o2)ccc1O`: the EC50 is over 11 µM and the half-inhibitory concentration (IC50) is over 11 µM.

On to `CC(=O)CSc1c(-c2ccccc2)c(=O)n(-c2ccccc2)c(=S)n1-c1ccccc1`, for which the EC50 was over 200 µM and the IC50 came out at 79.4 µM.

With `CCOP1(=O)CC(C)=C(Cl)C(OC)C1` (centres undefined), the EC50 is over 200 µM and the IC50 turned out to be 107 µM.

Turning to `NC(=O)Nc1ccc(C(=O)NCCCNC(=O)c2ccc(NC(N)=O)cc2)cc1`, the EC50 is over 200 µM and the IC50 is over 200 µM.

Regarding `CCN1CCC(CNC(=O)c2ccc(N)cc2)N1CC` (centres undefined), the EC50 was over 200 µM and the half-maximal inhibitory concentration (IC50) was over 200 µM.

In the case of `CCC(C)[C@H](NC(=O)[C@H](Cc1ccccc1)NC(=O)N(CC)c1ccccc1)C(=O)N[C@@H](CC(C)C)C(=O)OC` (some centres undefined), the result was inactive.

In the case of `CCCCC#COP(=O)(OCC)OCC`, the EC50 was over 251 µM and the 50% inhibitory concentration (IC50) is over 251 µM.

Turning to `O=C(CCl)N1CCN(c2ccccn2)CC1`, the EC50 was over 1050 µM.

Regarding `CC(=O)N1c2ccccc2C2=NN(C)C(=N)SC21` (centres undefined), the result was inactive.

For the compound `CC1=CC(C)S(=O)(=O)C1` (centres undefined), the EC50 was over 200 µM and the IC50 was over 200 µM.

As for `N#CCCC1(CCC#N)CCCCCCC(CCC#N)(CCC#N)C(O)C1O` (centres undefined), the EC50 was over 200 µM and the IC50 was over 200 µM.

`O=C(OCCN1CCCCC1)C(c1ccccc1)C1(O)CCSCC1` (centres undefined): the EC50 was over 200 µM and the half-inhibitory concentration (IC50) was over 200 µM.

Regarding `C[C@H]1CC[C@H]([C@@H](C)[C@H]2[C@@H](O)C[C@H]3[C@@H]4CC[C@H]5C[C@@H](O)CC[C@]5(C)[C@H]4CC[C@]23C)NC1`, the EC50 is over 200 µM and the IC50 stood at 12.6 µM.

Turning to `C/C(=N/NC(=S)N1CCCCCC1)c1cccc(/C(C)=N\NC(=S)N2CCCCCC2)n1`, the EC50 is over 200 µM and the half-inhibitory concentration (IC50) was 3.63 µM.

Turning to `COc1cc(C(O)CCBr)c(OC)cc1C` (centres undefined), the EC50 was over 200 µM and the IC50 was 2.29 µM.

For the compound `Oc1ccc(C2Oc3cc(O)c4cc3C2c2c3c(cc5c2[C@@H](c2cc(O)cc(O)c2)C(c2ccc(O)cc2)O5)O[C@@H](c2ccc(O)cc2)C3c2cc(O)cc3c2C4[C@H](c2ccc(O)cc2)O3)cc1` (some centres undefined), the EC50 was over 15.8 µM and the IC50 was over 15.8 µM.

Take `Cc1nc2c(sc3nc4c(cc32)CCC4)c(=O)o1`: the EC50 was over 100 µM and the IC50 was found to be 53.7 µM.

With `O=C(Sc1c(-c2ccccc2)c(=O)n(-c2ccccc2)c(=S)n1-c1ccccc1)c1ccc(Cl)cc1`, the EC50 was over 200 µM and the IC50 came to 19.5 µM.

For `CCOC(CCCN1CCC2(CC1)C(=O)N(C)CN2c1ccccc1)(OCC)c1ccc(F)cc1`, the EC50 was over 200 µM and the 50% inhibitory concentration (IC50) is 15.1 µM.

As to `CN1C(=O)C(O)(c2c3c(c(C4(O)C(=O)N(C)c5ccccc54)c4c2OCO4)OCO3)c2ccccc21` (centres undefined), the EC50 was over 200 µM and the IC50 is over 200 µM.

Consider `COc1ccc2[nH]cc(CCNC(C)=O)c2c1`, for which the EC50 was over 200 µM and the 50% inhibitory concentration (IC50) was over 200 µM.

With `CCOC(=O)Cc1nc2sc(S(N)(=O)=O)nn2c1Br`, the EC50 was over 200 µM and the IC50 is 10 µM.

Regarding `CN1COc2ccc(Br)cc2C1`, the outcome was inactive.

In the case of `CC(=O)N=C1N(/C=C2\C(=O)Oc3ccccc3C2=O)C(=O)/C(=C/c2ccc(Cl)cc2Cl)N1C`, the EC50 was over 200 µM and the half-maximal inhibitory concentration (IC50) stood at 34.7 µM.

In the case of `CC(=O)OCC1OC(n2c3c(c(-c4ccc(C)cc4)c(C#N)c2=S)C(=O)CC(C)(C)C3)C(OC(C)=O)C(OC(C)=O)C1OC(C)=O` (centres undefined), the EC50 is over 200 µM and the IC50 amounted to 16.6 µM.

With `Nc1ncnc2c1ncn2C1OC(CO)CC1O` (centres undefined), the result was inactive.

Consider `CCCCNC(=O)/C(=C\c1ccc(OC)c(OC)c1)NC(=O)c1ccccc1`, for which the EC50 was over 200 µM and the IC50 is over 200 µM.

Take `OCCOc1ccc(-c2cc(-c3ccccn3)nc(-c3ccccn3)c2)cc1`: the EC50 is over 3.72 µM and the concentration for half-maximal inhibition (IC50) was determined as 0.646 µM.

For the compound `COc1cc([C@H]2Oc3c(OC)cc(/C=C/C(N)=O)cc3[C@@H]2C(N)=O)ccc1O`, the EC50 is over 200 µM and the IC50 is over 200 µM.

For the compound `CCOC(=O)[C@@H](NC(=O)OC(C)(C)C)[C@@H](O)C(=O)OCC`, the EC50 was over 200 µM and the concentration for half-maximal inhibition (IC50) is over 200 µM.

For the compound `C=C1CC(Cn2ccc(=O)[nH]c2=O)(c2ccc(OC)cc2)OC1=O` (centres undefined), the EC50 was over 200 µM and the IC50 was 2.75 µM.

For the compound `CS(=O)(=O)NNS(=O)(=O)c1ccc2ccccc2c1`, the EC50 was over 224 µM and the IC50 is over 224 µM.

Regarding `Cn1c(=O)c2c(ncn2CCCCOc2ccc3c(c2)[n+]([O-])nc(N)[n+]3[O-])n(C)c1=O`, the EC50 is over 200 µM and the IC50 was determined as 23.4 µM.

Take `CCOc1cnn(-c2ccccc2)c(=O)c1SCc1ccc(Cl)c(Cl)c1`: the EC50 is over 33.1 µM and the IC50 worked out at 18.6 µM.

Regarding `O=c1c2ncn(C3CC(O)C(CO)O3)c2nnn1Cc1ccccc1[N+](=O)[O-]` (centres undefined), the EC50 is over 200 µM and the IC50 was over 200 µM.

For the compound `CCSCCCCCCCCCCCC(=O)O`, the concentration giving a half-maximal response (EC50) was 9.33 µM and the IC50 is 32.4 µM.
